# Measurements published in PMC9635984 (Bioorganic & medicinal chemistry letters, 2022).
# Test system: MDA-MB-231 breast cancer cells
# Experiment: In vitro antitumor activity against breast cancer cell line MDA-MB-231
# Format: cell-based
# Conditions: Homo sapiens, MDA-MB-231, read-out: IC50 (μM) MDA-MB-231
smiles,measurement,value
"Cn1c(CCCC(=O)O)nc2cc(N(CCCl)CCCl)ccc21 [Bendamustiune, bendamustine]",IC50,13.3 µM
